Assay results reported in article PMC10441322 (bioRxiv, 2023).
pIC50: −log10 of the molar value.

Assays:
CYP2E1 = CYP2E1 (Homo sapiens, UniProt P05181); assay: Vivid CYP2E1 fluorogenic competitive inhibition assay, dose-response; format: biochemical
[1] = target: T1, Shaker voltage-gated potassium channel (Drosophila melanogaster, UniProt P08510); assay: cut-open voltage clamp of Shaker in Xenopus oocytes, […] mV, pH […]; format: cell-based
[2] = target: T1, Shaker voltage-gated potassium channel; assay: cut-open voltage clamp of Shaker in Xenopus laevis oocytes, […] mV, pH […]; format: cell-based

T1 sequence (P08510 whole entry): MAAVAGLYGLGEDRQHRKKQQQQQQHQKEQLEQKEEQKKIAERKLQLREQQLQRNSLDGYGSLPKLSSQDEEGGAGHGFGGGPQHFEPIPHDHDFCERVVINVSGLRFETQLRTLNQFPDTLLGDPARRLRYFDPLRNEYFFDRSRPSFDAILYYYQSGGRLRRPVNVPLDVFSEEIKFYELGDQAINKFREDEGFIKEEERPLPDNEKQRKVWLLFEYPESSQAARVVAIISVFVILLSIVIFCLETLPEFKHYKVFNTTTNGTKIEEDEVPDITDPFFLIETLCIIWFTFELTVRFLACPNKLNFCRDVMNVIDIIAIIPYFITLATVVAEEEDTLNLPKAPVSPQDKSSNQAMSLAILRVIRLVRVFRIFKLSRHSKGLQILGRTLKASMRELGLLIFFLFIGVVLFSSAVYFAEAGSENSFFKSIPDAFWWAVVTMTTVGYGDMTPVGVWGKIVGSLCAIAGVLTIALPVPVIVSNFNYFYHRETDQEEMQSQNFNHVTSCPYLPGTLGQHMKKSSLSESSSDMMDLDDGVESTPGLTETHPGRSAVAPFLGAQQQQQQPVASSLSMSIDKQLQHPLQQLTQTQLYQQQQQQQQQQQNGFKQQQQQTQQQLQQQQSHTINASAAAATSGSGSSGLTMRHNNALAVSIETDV
Chain of CYP2E1 (P16435 2-677): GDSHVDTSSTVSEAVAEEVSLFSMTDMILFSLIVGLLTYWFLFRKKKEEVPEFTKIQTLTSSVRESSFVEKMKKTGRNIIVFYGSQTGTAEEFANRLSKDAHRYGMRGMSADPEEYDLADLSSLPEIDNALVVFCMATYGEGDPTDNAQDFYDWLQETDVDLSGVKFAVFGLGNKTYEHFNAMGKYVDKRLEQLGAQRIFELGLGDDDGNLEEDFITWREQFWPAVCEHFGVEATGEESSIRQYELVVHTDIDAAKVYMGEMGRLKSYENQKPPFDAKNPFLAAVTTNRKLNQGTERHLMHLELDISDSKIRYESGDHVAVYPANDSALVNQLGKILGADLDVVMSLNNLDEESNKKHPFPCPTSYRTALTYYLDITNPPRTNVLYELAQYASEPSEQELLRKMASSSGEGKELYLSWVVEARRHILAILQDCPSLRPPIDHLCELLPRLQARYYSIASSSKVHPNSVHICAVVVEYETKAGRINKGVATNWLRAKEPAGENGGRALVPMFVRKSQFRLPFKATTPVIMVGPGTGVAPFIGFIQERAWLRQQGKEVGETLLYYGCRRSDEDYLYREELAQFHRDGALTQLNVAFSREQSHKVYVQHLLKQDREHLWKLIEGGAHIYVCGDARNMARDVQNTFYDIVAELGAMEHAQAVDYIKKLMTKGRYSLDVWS
Chain of CYP2E1 (P05181 whole entry): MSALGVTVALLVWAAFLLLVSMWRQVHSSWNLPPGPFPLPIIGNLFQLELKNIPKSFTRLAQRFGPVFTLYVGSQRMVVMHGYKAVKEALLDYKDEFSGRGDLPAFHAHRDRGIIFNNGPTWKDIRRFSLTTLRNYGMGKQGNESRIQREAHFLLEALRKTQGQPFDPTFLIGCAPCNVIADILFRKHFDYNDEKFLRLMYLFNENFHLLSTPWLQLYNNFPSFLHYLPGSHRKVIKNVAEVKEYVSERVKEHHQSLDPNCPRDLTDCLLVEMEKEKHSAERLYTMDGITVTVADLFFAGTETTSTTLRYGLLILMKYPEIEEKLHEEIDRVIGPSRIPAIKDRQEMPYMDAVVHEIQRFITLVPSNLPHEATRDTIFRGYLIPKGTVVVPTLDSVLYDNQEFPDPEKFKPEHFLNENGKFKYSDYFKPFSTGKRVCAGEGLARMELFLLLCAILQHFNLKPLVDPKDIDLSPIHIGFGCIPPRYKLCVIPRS

Row | pIC50 [2] | Structure (SMILES) | pIC50 (CYP2E1) | pIC50 [1]
1 | – | Nc1ccncc1F [3F4AP, 3-fluoro-4-aminopyridine] | 4.77 | 3.91
2 | 3.52 | Cc1cncc(F)c1N [5Me3F4AP, 3-fluoro-5-methylpyridin-4-amine] | 4.44 | –
3 | – | Cc1cnccc1N [3Me4AP] | – | 4.18
